This assay concerns the target T1, AXOR109 (Homo sapiens, UniProt Q8TDU6).
T1 construct: expressed in transfected cells; host or cells: melanophore cells, transfected by electroporation
T1 sequence (Q8TDU6 1-330): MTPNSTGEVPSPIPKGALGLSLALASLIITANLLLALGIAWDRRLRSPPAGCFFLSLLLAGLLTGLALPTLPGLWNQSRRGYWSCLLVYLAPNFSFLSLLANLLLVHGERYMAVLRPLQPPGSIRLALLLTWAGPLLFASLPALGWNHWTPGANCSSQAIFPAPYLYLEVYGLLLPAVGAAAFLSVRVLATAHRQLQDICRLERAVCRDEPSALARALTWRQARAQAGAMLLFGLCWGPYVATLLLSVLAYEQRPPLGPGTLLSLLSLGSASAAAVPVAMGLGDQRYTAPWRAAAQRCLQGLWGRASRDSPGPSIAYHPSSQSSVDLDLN
The assay is described as follows: Human AXOR109/Melanophore Assay. In kind it is cell-based. To be noted: melanophore assay; for Emax: 1 h; for EC50: AXOR109 transfected melanophores. The method, then:
AXOR109 is a Gs-coupled receptor and therefore increases intracellular cAMP leading to melanosome dispersion. Compounds of the present invention were characterized in a melanophore assay as described in Jayawickreme C K, et al., Current Protocols in Pharmacology (2005) 12.9.1-12.9.16. Briefly, melanophore cells are transfected by electroporation with AXOR109 expressing cDNA. Cells are then plated in 384 well clear bottom plates at 8E3 cells per well in 50 μl of conditioned fibroblast media (CFM). Compounds to be tested are serially diluted 3-fold in DMSO and further diluted 1:100 with melanophore assay buffer (MAB)+10 nM Melatonin to yield 11 point concentration response curves. Following 2 hour incubation with MAB+1% DMSO+10 nM Melatonin, initial transmittance is read on a TwisterII/Spectramax plate reader. Compounds are then added to the cells and incubated for 1 hour, and final transmittance is read as before. Results are compared to vehicle (MAB+1% DMSO+10 nM Melatonin) and to a positive control (MAB+1% DMSO+10 nM Melatonin+200 nM alpha-MSH). Data are calculated for each well as follows: 1-(Transmitance-final/Transmitance-initial). Each well result is then normalized to alpha-MSH, the system max control for Gs/Gq coupled receptors using the following equation: (ObjX−Control1)/(Control2−Control1)*100. The percent system max is used to generate the pEC50 using the equation: y=((Vmax*x̂n)/(K̂n+x̂n))+Y2. Acceptable Z-prime values should be >0.4. Compounds of the present invention have a pEC50≧5.0 in the above described assay.

The mark [1] stands for this setting: normalized to alpha-MSH system max.

Results on 27 compounds are retold here after patent US20090069302A1 (SMITHKLINE BEECHAM CORPORATION, priority 2006, published 2009).

Bounds are passed on as bounds.

A word on the Emax: it is the maximal effect, on the per cent scale that the assay sets. By EC50 is commonly meant the midpoint of the concentration-response curve. Higher therefore signals lower potency in that assay. Take `CCN(C1CCCN(S(=O)(=O)c2ccc(OC)c(OC)c2)C1)S(=O)(=O)c1ccc(OC)c(OC)c1` (stereo not shown) [Example 93, N-(1-{[3,4-bis(methyloxy)phenyl]sulfonyl}-3-piperidinyl)-N-ethyl-3,4-bis(methyloxy)benzenesulfonamide]: the EC50 is 1260 to 10000 nM. Moreover, the Emax under setting [1] lay within 51 to 75%.

`COc1ccc(S(=O)(=O)N2C[C@H](C)N(S(=O)(=O)c3ccc(OC)c(OC)c3)C[C@@H]2C)cc1OC` [Example 47, (2S,5S)-1,4-bis{[3,4-bis(methyloxy)phenyl]sulfonyl}-2,5-dimethylpiperazine] had an EC50 of less than 126 nM.

Regarding `COc1ccc(S(=O)(=O)N[C@@H]2CCN(S(=O)(=O)c3ccc(OC)c(OC)c3)C2)cc1OC` [Example 77, N-((3R)-1-{[3,4-bis(methyloxy)phenyl]sulfonyl}-3-pyrrolidinyl)-3,4-bis(methyloxy)benzenesulfonamide], the EC50 is 1260 to 10000 nM. Under setting [1], the Emax was 76 to 100%.

In turn, `CCCN(C[C@@H]1CCCN1S(=O)(=O)c1ccc(OC)c(OC)c1)S(=O)(=O)c1ccc(OC)c(OC)c1` [Example 96, N-[((2S)-1-{[3,4-bis(methyloxy)phenyl]sulfonyl}-2-pyrrolidinyl)methyl]-3,4-bis(methyloxy)-N-propylbenzenesulfonamide] gave an EC50 of 126 to 1000 nM. This compound showed an Emax under setting [1] of 76 to 100%.

As for `COc1ccc(S(=O)(=O)N2C[C@@H]3C[C@H]2CN3S(=O)(=O)c2ccc(OC)c(OC)c2)cc1OC` [Example 86], the EC50 is 1260 to 10000 nM. Further, the Emax under setting [1] lay in the range of 76 to 100%.

With `COc1ccc(S(=O)(=O)N2CC[C@@H](N(C)S(=O)(=O)c3ccc(OC)c(OC)c3)C2)cc1OC` [Example 85], the EC50 is 126 to 1000 nM. Besides, under setting [1], the Emax is 51 to 75%.

In turn, `CCc1cc(S(=O)(=O)N2CCCN(S(=O)(=O)c3ccc(OC)c(OC)c3)CC2)ccc1OC` [Example 41, 1-{[3,4-bis(methyloxy)phenyl]sulfonyl}-4-{[3-ethyl-4-(methyloxy)phenyl]sulfonyl}hexahydro-1H-1,4-diazepine] had an EC50 of 126 to 1000 nM. Under setting [1], this compound gave an Emax of 51 to 75%.

In turn, `COc1ccc(S(=O)(=O)N(C)CCN(C)S(=O)(=O)c2ccc3c(c2)OCCCO3)cc1OC` [Example 73, N-{2-[{[3,4-bis(methyloxy)phenyl]sulfonyl}(methyl)amino]ethyl}-N-methyl-3,4-dihydro-2H-1,5-benzodioxepin-7-sulfonamide] showed an EC50 of 1260 to 10000 nM. Further, the Emax under setting [1] lay within 76 to 100%.

For `COc1ccc(S(=O)(=O)N(CCN(C2CC2)S(=O)(=O)c2ccc(OC)c(OC)c2)C(C)C)cc1OC` [Example 89], the 50% effective concentration (EC50) is 126 to 1000 nM. Besides, under setting [1], the maximal response (Emax) fell in the range of 76 to 100%.

Regarding `COc1ccc(S(=O)(=O)N2CCCN(S(=O)(=O)c3ccc(OC)c(OC)c3)C(C)C2)cc1OC` (stereo not shown) [Example 49, 1,4-bis{[3,4-bis(methyloxy)phenyl]sulfonyl}-2-methylhexahydro-1H-1,4-diazepine], the EC50 was 1260 to 10000 nM. This compound also gave an Emax under setting [1] of 51 to 75%.

Consider `CCN([C@@H]1CCN(S(=O)(=O)c2ccc(OC)c(OC)c2)C1)S(=O)(=O)c1ccc(OC)c(OC)c1` [Example 60, N-((3R)-1-{[3,4-bis(methyloxy)phenyl]sulfonyl}-3-pyrrolidinyl)-N-ethyl-3,4-bis(methyloxy)benzenesulfonamide], for which the EC50 was less than 126 nM. Also, under setting [1], the Emax lay in the range of 76 to 100%.

In turn, `COc1ccc(S(=O)(=O)N2CCN(S(=O)(=O)c3ccc(OC)c(OC)c3)c3ccccc32)cc1OC` [Example 83] gave an EC50 of 126 to 1000 nM. For the same compound, the Emax under setting [1] was in the range of 51 to 75%.

For `COc1ccc(S(=O)(=O)N2C[C@H](C)N(S(=O)(=O)c3ccc(OC)c(OC)c3)C[C@@H]2C)cc1F` [Example 67, (2S,5S)-1-{[3,4-bis(methyloxy)phenyl]sulfonyl}-4-{[3-fluoro-4-(methyloxy)phenyl]sulfonyl}-2,5-dimethylpiperazine], the EC50 was 126 to 1000 nM.

`CCc1cc(S(=O)(=O)N(C)CCN(C)S(=O)(=O)c2ccc(OC)c(OC)c2)ccc1OC` [Example 43, N-{2-[{[3,4-bis(methyloxy)phenyl]sulfonyl}(methyl)amino]ethyl}-N-methyl-3-ethyl-4-(methyloxy)benzenesulfonamide] showed a 50% effective concentration (EC50) of 126 to 1000 nM. Besides, the Emax under setting [1] was in the range of 0 to 50%.

In turn, `COc1ccc(S(=O)(=O)N2C[C@H](C)N(S(=O)(=O)c3cccc4cccnc34)C[C@@H]2C)cc1OC` [Example 69, 8-[((2S,5S)-4-{[3,4-bis(methyloxy)phenyl]sulfonyl}-2,5-dimethyl-1-piperazinyl)sulfonyl]quinoline] had an EC50 of 1260 to 10000 nM. Under setting [1], this compound had an Emax of 76 to 100%.

In the case of `COc1cccc(S(=O)(=O)N(C)CCN(C)S(=O)(=O)c2ccc(OC)c(OC)c2)c1` [Example 10, N-methyl-N-[2-(methyl{[3-(methyloxy)phenyl]sulfonyl}amino)ethyl]-3,4-bis(methyloxy)benzenesulfonamide], the EC50 is 126 to 1000 nM. Moreover, under setting [1], the Emax lay within 76 to 100%.

Compound `COc1ccc(S(=O)(=O)N2C[C@H](C)N(S(=O)(=O)c3ccc4c(c3)OCCO4)C[C@@H]2C)cc1OC` [Example 71, (2S,5S)-1-{[3,4-bis(methyloxy)phenyl]sulfonyl}-4-(2,3-dihydro-1,4-benzodioxin-6-ylsulfonyl)-2,5-dimethylpiperazine] showed an EC50 of 126 to 1000 nM. The maximal response (Emax) under setting [1] lay in the range of 76 to 100%.

For `COc1ccc(S(=O)(=O)N2C[C@@H](C)N(S(=O)(=O)c3ccc(OC)c(OC)c3)[C@@H](C)C2)cc1OC` [Example 20, 1,4-bis{[3,4-bis(methyloxy)phenyl]sulfonyl}-2,6-cis-dimethylpiperazine], the EC50 was 1260 to 10000 nM. In addition, the “% Max” value under setting [1] is reported as “** (“**” = 51% to 75%)”.

Regarding `CCN(C[C@H](C)N(CC)S(=O)(=O)c1ccc(OC)c(OC)c1)S(=O)(=O)c1ccc(OC)c(OC)c1` [Example 74, N,N′-(2S)-1,2-propanediylbis[N-ethyl-3,4-bis(methyloxy)benzenesulfonamide]], the EC50 is 126 to 1000 nM. Further, the Emax under setting [1] fell in the range of 76 to 100%.

Regarding `COc1ccc(S(=O)(=O)N(C)C[C@@H]2CCCN2S(=O)(=O)c2ccc(OC)c(OC)c2)cc1OC` [Example 94, N-[((2S)-1-{[3,4-bis(methyloxy)phenyl]sulfonyl}-2-pyrrolidinyl)methyl]-N-methyl-3,4-bis(methyloxy)benzenesulfonamide], the EC50 is 1260 to 10000 nM. Further, the Emax under setting [1] fell in the range of 76 to 100%.

In turn, `COc1ccc(S(=O)(=O)N2C[C@H](C)N(S(=O)(=O)c3ccc4c(c3)OCO4)C[C@@H]2C)cc1OC` [Example 70, (2S,5S)-1-(1,3-benzodioxol-5-ylsulfonyl)-4-{[3,4-bis(methyloxy)phenyl]sulfonyl}-2,5-dimethylpiperazine] gave an EC50 of 126 to 1000 nM. The maximal effect (Emax) under setting [1] is more than 100%.

`CCc1cc(S(=O)(=O)N2CCN(S(=O)(=O)c3ccc(OC)c(OC)c3)CC2)ccc1OC` [Example 64, 1-{[3,4-bis(methyloxy)phenyl]sulfonyl}-4-{[3-ethyl-4-(methyloxy)phenyl]sulfonyl}piperazine] showed an EC50 of 126 to 1000 nM. This compound also showed a maximal response (Emax) under setting [1] of 76 to 100%.

Regarding `COc1ccc(S(=O)(=O)N2CCC(N(CC3CCC3)S(=O)(=O)c3ccc(OC)c(OC)c3)C2)cc1OC` (stereo not shown) [Example 58, N-(1-{[3,4-bis(methyloxy)phenyl]sulfonyl}-3-pyrrolidinyl)-N-(cyclobutylmethyl)-3,4-bis(methyloxy)benzenesulfonamide], the EC50 is 1260 to 10000 nM. The same compound had an Emax under setting [1] of 76 to 100%.

On to `COc1ccc(S(=O)(=O)N2C[C@H](C)N(S(=O)(=O)c3ccc(OC)c(OC)c3)[C@@H](C)C2)cc1OC` [Example 21, (2S,6S)-1,4-bis{[3,4-bis(methyloxy)phenyl]sulfonyl}-2,6-dimethylpiperazine], for which the EC50 is 126 to 1000 nM. Under setting [1], this compound displayed an Emax of 51 to 75%.

In turn, `CC=CCN(CCN(C)S(=O)(=O)c1ccc(OC)c(OC)c1)S(=O)(=O)c1ccc(OC)c(OC)c1` [Example 75, N-{2-[{[3,4-bis(methyloxy)phenyl]sulfonyl}(2-buten-1-yl)amino]ethyl}-N-methyl-3,4-bis(methyloxy)benzenesulfonamide] showed an EC50 of 126 to 1000 nM. For the same compound, the Emax under setting [1] is 76 to 100%.

Regarding `COc1ccc(S(=O)(=O)NC2CCCCN(S(=O)(=O)c3ccc(OC)c(OC)c3)C2)cc1OC` (stereo not shown) [Example 25, N-(1-{[3,4-bis(methyloxy)phenyl]sulfonyl}hexahydro-1H-azepin-3-yl)-3,4-bis(methyloxy)benzenesulfonamide], the EC50 was 1260 to 10000 nM. The compound further gave a maximal effect (Emax) under setting [1] of 0 to 50%.

`CCN(CCN(C1CC1)S(=O)(=O)c1ccc(OC)c(OC)c1)S(=O)(=O)c1ccc(OC)c(OC)c1` [Example 90] had an EC50 of 126 to 1000 nM. Moreover, the Emax under setting [1] was 51 to 75%.
